What was measured:
dopamine reuptake = conditions: cited from earlier work
serotonin reuptake = conditions: cited from earlier work
norepinephrine reuptake = conditions: as disclosed in WO-A-01/01973; cited from earlier work
[1] = system: static allodynia in the CCI rat model; assay: Static allodynia (von Frey hairs) in the chronic constriction injury (CCI) rat model of neuropathic pain; format: in vivo; conditions: CCI rats; for paw withdrawal threshold (PWT), reversal compared to the vehicle treated group: single administration, peak effect 1 h post administration, median [LQ;UQ], 6 rats per group, CCI baseline 2 g; for anti-allodynic effect following single administration: static allodynia, (S,S)-reboxetine 1-3-10-30 mg/kg IP, Compound A 3-10-30 mg/kg SC
Description: Male Sprague Dawley rats (175-200 g at time of surgery), obtained from Charles River, Margate, U.K.) were housed in groups of 3-6. All animals were kept under a 12 h light/dark cycle (lights on at 07 h 00 min) with food and water ad libitum. All experiments were carried out by an observer blind to drug treatments. Animals were placed in an anaesthetic chamber and anaesthetised with a 2% isofluorane O2 mixture. The right hind thigh is shaved and swabbed with 1% iodine. Animals were then transferred to a homeothermic blanket for the duration of the procedure and anaesthesia maintained during surgery via a nose cone. The skin was cut along the line of the thigh bone. The common sciatic nerve was exposed at the middle of the thigh by blunt dissection through biceps femoris. Proximal to the sciatic trifurcation, about 7 mm of nerve was freed by inserting forceps under the nerve and the nerve gently lifted out of the thigh. The forceps were gently opened and closed several times to aid clearance of the fascia from the nerve. Suture was pulled under the nerve using forceps and tied in a simple knot until slight resistance was felt and then double knotted. The procedure was repeated until 4 ligatures (4-0 silk) were tied loosely around the nerve with approx 1 mm spacing. The incision was closed in layers and the wound treated with topical antibiotics. Animals were habituated to test cages prior to the assessment of allodynia. Static allodynia was evaluated by application of von Frey hairs (Stoelting, Wood Dale, Ill., USA) in ascending order of force (0.7, 1.2, 1.4, 2, 4, 6, 8, 10, 15 and 26 grams) to the plantar surface of hind paws. […] Once a withdrawal response to a von Frey hair was established, the paw was re-tested, starting with the filament below the one that produced a withdrawal, and subsequently with the remaining filaments in descending force sequence until no withdrawal occurred. The highest force of 26 g lifted the paw as well as eliciting a response, thus represented the cut off point. Each animal had both hind paws tested in this manner. The lowest amount of force required to elicit a response was recorded as paw withdrawal threshold (PWT) in grams. Static allodynia was defined as present if animals responded to a stimulus of, or less than, 4 g, which is innocuous in normal rats. […] Static allodynia was graphically represented as median [LQ;UQ] in a logarithmic scale and data analysed by Kruskall-Wallis test for non-parametric results, followed by Mann-Whitney's U test vs vehicle group for each time point, using Prism Software version 3 (GraphPad, San Diego, USA). […] Data are the peak effects (1 h post administration) for each compound and doses expressed as median [LQ; […] In this specific case it corresponds to the Compound A dose-response line.

CCOc1ccccc1OC(c1ccccc1)C1CNCCO1 (racemic) [Reboxetine, (R,R/S,S)-(2-[(2-ethoxyphenoxy)(phenyl)methyl]morpholine)]
dopamine reuptake inhibition (dopamine reuptake): no dopamine reuptake inhibition | serotonin reuptake inhibition (serotonin reuptake): only marginal serotonin reuptake inhibition

CCOc1ccccc1O[C@@H](c1ccccc1)[C@@H]1CNCCO1 [(S,S)-reboxetine]
selectivity for the inhibition of norepinephrine reuptake over the inhibition of serotonin reuptake (norepinephrine reuptake): greatly enhanced selectivity | paw withdrawal threshold (PWT), reversal compared to the vehicle treated group ([1]; 30 mg/kg IP (free base)): 6 g | anti-allodynic effect following single administration [1]: dose dependent anti-allodynic effect

CCCOc1ccc(S(=O)(=O)N2CCN(CC)CC2)cc1-c1nc2c(CC)n(Cc3ccccn3)nc2c(=O)[nH]1 [Compound A, 3-ethyl-5-[5-(4-ethylpiperazin-1-ylsulphonyl)-2-n-propoxyphenyl]-2-(pyridin-2-yl)methyl-2,6-dihydro-7H-pyrazolo[4,3-d]pyrimidin-7-one]
paw withdrawal threshold (PWT), reversal compared to the vehicle treated group ([1]; 30 mg/kg SC): 6 g | anti-allodynic effect following single administration [1]: dose dependent anti-allodynic effect

From patent US20090227562A1, “Combination of a Selective Noradrenaline Reuptake Unhibitor and a PDEV Inhibitor” (Pfizer Inc., priority 2004, published 2009)
